In US12472159B2, “Compositions comprising amino acids for use in the prevention and treatment of chemotherapy side effects” (Professional Dietetics S.p.A., priority 2020, dated 2025):

What was measured:
HL-1 cardiomyocytes [1] = assay: Mitochondrial biogenesis marker mRNA levels by quantitative RT-PCR in HL-1 cardiomyocytes; type: cell-based, mouse; conditions: HL-1 cells; for mRNA levels of mitochondrial biogenesis markers (PGC-1α, NRF1, Tfam, cyt c, COX IV): agent alone vs untreated cells, α5 1% w/v or BCAAem 48 h, 1 μM DOX 16 h; for prevention of DOX-induced decrease of mitochondrial biogenesis marker mRNA: supplement 48 h with 1 μM DOX 16 h, vs DOX-treated cells
Procedure: Rules of the Declaration of Helsinki have been followed. HL-1 cardiomyocytes were obtained from W.C. Claycomb (Millipore Cat #SCC065) and plated in fibronectin/gelatin-coated flasks, grown to 70-80% confluence in Claycomb medium (Sigma-Aldrich) supplemented with 100 μM norepinephrine (from a 10 mM norepinephrine [Sigma-Aldrich] stock solution dissolved in 30 mM L-ascorbic acid [Sigma-Aldrich]), 2 mM L-glutamine, 100 U/ml penicillin, 100 μg/ml streptomycin and 10% Fetal Bovine Serum (FBS, Sigma-Aldrich). MCF-7 human breast cancer cell line (ATCC® HTB-22™) also available from P. Limonta (Pharmacological and Biomolecular Sciences, University of Milan, Milan, Italy) were cultured in pH 7.4 DMEM, containing streptomycin (100 U/ml), penicillin ([…]), and gentamicin ([…]), and supplemented with 10% FBS. Both cell types were treated with […] or α5 for 48 h and 1 μM DOX for 16 h (FIG. 1). […] The cycle number at which the various transcripts were detectable (threshold cycle, CT) was compared to that of TBP, referred to as ΔCT.

HL-1 cardiomyocytes [2] = assay: Citrate synthase activity in HL-1 cardiomyocytes; type: cell-based, mouse; conditions: HL-1 cells; agent alone vs untreated cells
Procedure: (§1) Rules of the Declaration of Helsinki have been followed. HL-1 cardiomyocytes were obtained from W.C. Claycomb (Millipore Cat #SCC065) and plated in fibronectin/gelatin-coated flasks, grown to 70-80% confluence in Claycomb medium (Sigma-Aldrich) supplemented with 100 μM norepinephrine (from a 10 mM norepinephrine [Sigma-Aldrich] stock solution dissolved in 30 mM L-ascorbic acid [Sigma-Aldrich]), 2 mM L-glutamine, 100 U/ml penicillin, 100 μg/ml streptomycin and 10% Fetal Bovine Serum (FBS, Sigma-Aldrich). MCF-7 human breast cancer cell line (ATCC® HTB-22™) also available from P. Limonta (Pharmacological and Biomolecular Sciences, University of Milan, Milan, Italy) were cultured in pH 7.4 DMEM, containing streptomycin (100 U/ml), penicillin ([…]), and gentamicin ([…]), and supplemented with 10% FBS. Both cell types were treated with […] or α5 for 48 h and 1 μM DOX for 16 h (FIG. 1).

HL-1 cardiomyocytes [3] = assay: Mitochondrial oxidative stress in HL-1 cardiomyocytes (H2O2 release, aconitase, SOD, anti-ROS genes, 8-OHdG); type: cell-based, mouse; conditions: HL-1 cells; agent alone vs untreated cells
Procedure: as §1
To investigate the mitochondrial oxidative stress, mitochondria were isolated using the Qproteome Mitochondria isolation kit (Qiagen). Mitochondrial H2O2 release was measured in the presence of horseradish peroxidase (HRP), using the Amplex Red Hydrogen Peroxide/Peroxidase Assay kit (Molecular Probes). Fluorometric measures were made using a Fusion Universal Microplate Analyzer (Packard/PerkinElmer) with excitation filter at 550 nm and emission filter at 590 nm. H2O2 production, calculated from a standard curve, was expressed as nmol/min/mg protein as described Moreover, mitochondrial aconitase and SOD activity were measured as previously described. Briefly, the formation of NADPH was followed spectrophotometrically (340 nm) at 25° C. (for aconitase activity), while SOD activity was measured with the Superoxide Dismutase Assay Kit (Calbiochem). […] Finally, the oxidative damage of DNA was measured as a further marker of oxidative stress. […] Quality and quantity of DNA were confirmed by a NanoDrop ND-1000 spectrophotometry analysis. Absorbance of the ELISA reaction product was determined spectrophotometrically using 450 nm as the primary wave.

HL-1 cardiomyocytes [4] = assay: MTT viability assay of HL-1 cardiomyocytes; type: cell-based, mouse; conditions: agent alone; 1% α5 48 h or 1 μM DOX 16 h
Procedure: as §1, with “1). HL-1 cell viability was assessed by MTT [3-(4,5-dimethylthiazol-2-yl)-2,5-diphenyltetrazolium bromide] reagent (Sigma, Milan, Italy). […] The purple formazan crystals were dissolved in 5% SDS/0.1 M HCl (100 μl/well), and the absorbance was recorded on a microplate reader (ELx800, BioTek Instruments, VT, USA) at a wavelength of 570 nm. Each test was repeated at least four times in quadruplicates.” for “1).”

[5] = system: left ventricle of DOX-treated mice; assay: Signaling pathways (eNOS, mTORC1, Sestrin2, KLF15, BCKDH) in left ventricle of mice; type: in vivo, C57BL6/J mice
Procedure: (§2) Drinking volume, food intake, and body weight were checked twice weekly. At the end of the treatment period, mice were sacrificed by cervical dislocation and hearts quickly removed and freshly used (for oxygen consumption analysis) or frozen in liquid nitrogen and stored at ˜80° C. (for mtDNA, mRNA, and protein level measurement, in addition to citrate synthase activity analysis).
(§3) Quantitative RT-PCRs were performed as previously described [3-7] with the iQ SybrGreenl SuperMix (Bio-Rad; Segrate, Italy) on an iCycler iQ real-time PCR detection system (Bio-Rad). Briefly, RNA was isolated from left ventricle using the RNeasy Tissue Mini Kit (Qiagen) or from HL-1 cells using the RNeasy Mini Kit (Qiagen). cDNA was synthesized using the iScript cDNA Synthesis Kit (Bio-Rad Laboratories).
Protein extracts were obtained from left ventricle with T-PER mammalian protein extraction reagent (Pierce, ThermoScientific, Rockford, USA) or from HL-1 cells in M-PER mammalian protein extraction reagent (Pierce, ThermoScientific, Rockford, USA), as indicated by the manufacturer, in the presence of 1 mM NaVO4, 10 mM NaF and a cocktail of protease inhibitors (Sigma-Aldrich, Milan, Italy). Protein content was determined by the bicinchoninic acid protein assay (BCA, Pierce, Euroclone, Milan, Italy), and 50 of the protein extract was separated by SDS-PAGE under reducing conditions. The separated proteins were then electrophoretically transferred to a nitrocellulose membrane (Bio-Rad Laboratories, Segrate, Italy) [3-8]. Proteins of interest were detected with specific antibodies: anti-COX IV (cytochrome c oxidase subunit IV, Cell Signaling Technology Cat #4844, Euroclone, Milan, Italy), anti-cyt c (cytochrome complex, Cell Signaling Technology Cat #4280), anti-PGC-1α (proliferator-activated receptor γ coactivator 1α, Cell Signaling Technology Cat #2178), anti-phospho-AKT (Ser473) (Cell Signaling Technology Cat #4060), anti-AKT (Cell Signaling Technology Cat #4685), anti-phospho-eNOS (Ser1177) (phospho-endothelial nitric oxide synthase, Cell Signaling Technology Cat #9571), anti-eNOS (Cell Signaling Technology Cat #9572), anti-phospho-S6 (Ser235/236) (phospho-S6, Cell Signaling Technology Cat #4858), anti-S6 (Cell Signaling Technology Cat #2217), anti-phospho-mTOR (Ser2481) (Cell Signaling Technology Cat #2974), anti-mTOR (Cell Signaling Technology Cat #2972), anti-phospho-BCKDH (Ser293) (Abcam Cat #200577), anti-BCKDH (Abcam Cat #138460), and anti-GAPDH (1:1000, Cell Signaling Technology Cat #2118) at 1:1000 dilution each. After the visualization of phospho-eNOS, phospho-AKT, phospho-mTOR, phospho-S6, and anti-phospho-BCKDH the filters were stripped with the Restore™ western blot stripping buffer (Euroclone, Milan, Italy) and further used for the visualization of total eNOS, total AKT, total mTOR, total S6, or total BCKDH. Immunostaining was performed using horseradish peroxidase-conjugated anti-rabbit or anti-mouse immunoglobulin for 1 h at room temperature. The protein was detected using SuperSignal substrate (Pierce, Euroclone, Milan, Italy) and quantified by densitometry with ImageJ image analysis software.

HL-1 cardiomyocytes [6] = assay: Signaling pathways (eNOS, S6, Sestrin2, Akt, KLF15, BCKDH) in HL-1 cardiomyocytes; type: cell-based, mouse; conditions: HL-1 cells
Procedure: as §1, with “HTB-22TM)” for “HTB-22™)”, “1). […] Lafayette, CO) or siGENOME nontargeting siRNA using Dharmafect 1 transfection reagent. After 24 h transfection, cells were treated with 1% α5 for 24 h and 1 μM DOX for 16 h. Transfection efficacy was determined with siGLO-RISC-free nontargeting siRNA and siRNA uptake by fluorescence detection (absorbance/emission 557/570). Proteins were then extracted for Western blotting analysis.” for “1).”

HL-1 cardiomyocytes [7] = assay: Klf15, eNOS and Raptor siRNA knockdown in HL-1 cardiomyocytes, RT-PCR and immunoblot; type: cell-based, mouse; conditions: HL-1 cells
Procedure: For the study of phospho-proteins, HL-1 cells were treated with 1% α5 for 2 h and 1 μM DOX (Doxo-HCl from Sigma-Aldrich D15D15) for the last 60 min. […] After 24 h transfection, cells were treated with 1% α5 for 24 h and 1 μM DOX for 16 h. Transfection efficacy was determined with siGLO-RISC-free nontargeting siRNA and siRNA uptake by fluorescence detection (absorbance/emission 557/570). Proteins were then extracted for Western blotting analysis.

[8] = system: left ventricle of DOX-treated mice; assay: Mitochondrial biogenesis, mass, function and ROS defense genes in left ventricle of DOX-treated mice
Procedure: as §2, §3
For mtDNA analysis, total DNA was extracted with a QIAamp DNA Extraction Kit (Qiagen). mtDNA was amplified using primers specific for the mtDNA and normalized to the 18S gene (Table 2) [9]. The mtDNA content was determined using qRT-PCR by measuring the threshold cycle ratio (ΔCT) of the mtDNA gene vs. that of a nuclear encoded gene (18S) in left ventricle of DOX-, α5- or DOX plus α5-treated mice, in addition to control untreated mice [10,11].
The activity was measured spectrophotometrically at 412 nm at 30° C. in left ventricle extracts [12,13].

In the case of `COc1cccc2c1C(=O)c1c(O)c3c(c(O)c1C2=O)C[C@@](O)(C(=O)CO)C[C@@H]3O[C@H]1C[C@H](N)[C@H](O)[C@H](C)O1` [DOX, doxorubicin], the “mRNA levels of mitochondrial biogenesis markers (PGC-1α, NRF1, Tfam, cyt c, COX IV)” value (HL-1 cardiomyocytes [1]) is reported as “decreased”, the citrate synthase activity (HL-1 cardiomyocytes [2]) is reported as “reduction of citrate synthase activity” and the “8-hydroxy-2′-deoxyguanosine (8-OHdG), oxidative DNA damage” value (HL-1 cardiomyocytes [3]) is reported as “higher amount”. For the same molecule, the “expression of GPX1 and SOD1 genes” value (HL-1 cardiomyocytes [3]) was “increased”, the “mitochondrial H2O2 release” value (HL-1 cardiomyocytes [3]) was “markedly increased” and the “HL-1 cell survival (MTT)” value (HL-1 cardiomyocytes [4]) was “DOX-induced death of HL-1 cells”. For the same molecule, the “Klf15 mRNA levels in left ventricle” value ([5]; agent alone) was “significantly reduced”, the “Ser2481 mTOR phosphorylation in heart” value ([5]; agent alone) was “reduced” and the “Sestrin2 mRNA in left ventricle” value ([5]; agent alone) was “markedly increased”. The “eNOS activity, (Ser1177)phospho-eNOS to total eNOS ratio, in left ventricle” value ([5]; agent alone) was “only partially eNOS activity”, the “eNOS expression in left ventricle” value ([5]; agent alone) was “decreased eNOS expression” and the “(Ser235/236)phospho-S6 to total S6 ratio in left ventricle” value ([5]; agent alone vs saline) was “decreased”. For the same molecule, the “(Ser293)-BCKDH phosphorylation in left ventricle” value ([5]; agent alone vs saline-treated) was “unchanged”, the “(Ser293)-BCKDH phosphorylation (p-BCKDH)” value (HL-1 cardiomyocytes [6]; DOX vs untreated, α5 with or without DOX) was “not different” and the “(Ser235/236)-S6 phosphorylation” value (HL-1 cardiomyocytes [6]; agent alone) was “markedly decreased”. The “(Ser 473)-Akt phosphorylation” value (HL-1 cardiomyocytes [6]; agent alone) was “markedly reduced Akt phosphorylation”, the “KLF15 expression (mRNA and protein)” value (HL-1 cardiomyocytes [6]; agent alone) was “reduced both at mRNA and protein levels” and the Sestrin2 expression (HL-1 cardiomyocytes [6]; agent alone) was “markedly increased”. For the same molecule, the “(Ser1177)-eNOS phosphorylation” value (HL-1 cardiomyocytes [6]; agent alone, 1 μM DOX) was “markedly reduced”, the eNOS gene expression (HL-1 cardiomyocytes [6]; agent alone, 1 μM DOX or α5 1% w/v) was “only slightly decreased” and the “PGC-1α and COX IV protein” value (HL-1 cardiomyocytes [7]; Klf15 siRNA-transfected or otherwise untreated, DOX exposure) was “significantly decreased both PGC-1α and COX IV protein”. For the same molecule, the “(Ser293)-BCKDH phosphorylation in Klf15 knockdown cells” value (HL-1 cardiomyocytes [7]; Klf15 siRNA, DOX-treated and untreated) was “unable to change phosphorylation”, the “expression of ROS defense enzymes (SOD1, SOD2, catalase, GPX1) in left ventricle” value ([8]; agent alone) was “augmented the expression of ROS defense enzymes” and the “mRNA levels of mitochondrial biogenesis genes in left ventricle” value ([8]; agent alone vs control group) was “reduced”. The “mitochondrial mass and function (mtDNA amount, respiratory proteins particularly COX IV, citrate synthase activity) in left ventricle” value ([8]; agent alone vs saline-treated) was “lower” and the “oxygen consumption rate (OCR) of mitochondria isolated from left ventricle” value ([8]; agent alone, Clark's electrode) was “decreased OCR”.

For `O=C(O)CC(O)C(=O)O` (centres unmarked) [malic acid], the “mRNA levels of mitochondrial biogenesis markers (PGC-1α, NRF1, Tfam, cyt c, COX IV)” value (HL-1 cardiomyocytes [1]) was “unable to prevent the DOX-induced reduction of mitochondrial biogenesis as well as to change the mitochondrial gene expression when supplemented alone” and the “prevention of DOX-induced decrease of mitochondrial biogenesis marker mRNA” value (HL-1 cardiomyocytes [1]) was “unable to prevent the DOX-induced reduction of mitochondrial biogenesis”.

`O=C(O)CC(O)(CC(=O)O)C(=O)O` [citric acid] was tested, and the “mRNA levels of mitochondrial biogenesis markers (PGC-1α, NRF1, Tfam, cyt c, COX IV)” value (HL-1 cardiomyocytes [1]) was “unable to prevent the DOX-induced reduction of mitochondrial biogenesis as well as to change the mitochondrial gene expression when supplemented alone” and the “prevention of DOX-induced decrease of mitochondrial biogenesis marker mRNA” value (HL-1 cardiomyocytes [1]) was “unable to prevent the DOX-induced reduction of mitochondrial biogenesis”.

With `O=C(O)CCC(=O)O` [succinic acid] the “mRNA levels of mitochondrial biogenesis markers (PGC-1α, NRF1, Tfam, cyt c, COX IV)” value (HL-1 cardiomyocytes [1]) was “unable to prevent the DOX-induced reduction of mitochondrial biogenesis as well as to change the mitochondrial gene expression when supplemented alone” and the “prevention of DOX-induced decrease of mitochondrial biogenesis marker mRNA” value (HL-1 cardiomyocytes [1]) was “unable to prevent the DOX-induced reduction of mitochondrial biogenesis”.
